The source of these data is patent US4368203A, “Antibiotics and derivatives thereof having β-lactamase inhibitory activity and production thereof” (priority 1977, dated 1983).

The structures appear in SMILES notation. In brackets after ≈: the same amount, converted by molar mass.

Test [1] concerns Providencia sp. P-8. Put plainly: MIC, broth dilution method. To be noted: SP.P8, 20 h, read-out: Minimum inhibitory concentration. On the technique in general: In broth dilution the organism is exposed to a series of concentrations in liquid medium.
Test [2] relates to Diplococcus pneumoniae Type III. Put plainly: MIC, broth dilution method. In kind it is cell-based. To be noted: Streptococcus pneumoniae, 20 h; Table 5; 10% horse blood supplemented into the medium; read-out: Minimum inhibitory concentration.
Test [3] relates to Serratia marcescens S-18. Put plainly: Potentiating and synergistic effect, pulp disc inhibition zone on agar plate. In kind it is cell-based. To be noted: Table 6, disc 20 μl, PS-6 240 μg/ml, reference antibiotics 10,000 μg/ml. As to the method: (§1) 10 ml of 2.5 folds diluted nutrient agar (pH 7.0) containing 50 μg/ml of penicillin G or cephaloridine was seeded with the β-lactamase producing and β-lactam-resistant microorganisms and poured in a 9 cm Petri dish to provide the bio-assay agar plate. On this assay plate, 8 mm of pulp discs each containing 20 μl of antibiotic PS-6 solution at the concentration of 240 μg/ml were placed and incubated at 35° C. for 18 hours before reading the inhibition zones. A control assay plate was similarly prepared without penicillin G or cephaloridine. As reference antibiotics, 10,000 μg/ml of penicillin G or 20 μl of cephaloridine were disc-assayed under the same conditions.

Test [4] deals with Citrobacter freundii E-9. The description is as above. It is filed as cell-based. To be noted: Table 6, disc 20 μl, PS-6 240 μg/ml, reference antibiotics 10,000 μg/ml. The procedure:
as §1

In test [5] the test system is Proteus sp. P-22. Put plainly: MIC, broth dilution method. Particulars: 20 h, read-out: Minimum inhibitory concentration.
The test system of test [6] is Klebsiella pneumoniae K-2. Put plainly: MIC, broth dilution method. Particulars: Klebsiella pneumoniae, K2, 20 h, read-out: Minimum inhibitory concentration.
For test [7], the system named is Serratia marcescens S-18. Put plainly: MIC, broth dilution method. To be noted: S18, 20 h, read-out: Minimum inhibitory concentration.
Test [8] has as its system Enterobacter aerogenes E-19. Put plainly: MIC, broth dilution method. To be noted: Klebsiella aerogenes, E19, 20 h, read-out: Minimum inhibitory concentration.
The mark [9] stands for this setting: agar containing 50 μg/ml of cephaloridine.
The mark [10] stands for this setting: agar containing 50 μg/ml of penicillin G.

Take `CC(=O)NCCSC1=C(C(=O)O)N2C(=O)C(C(C)C)C2C1` (stereo not drawn) [Antibiotic PS-6]: the MIC in test [1] is 12.5 mg/L (≈ 40 µM); in test [2], 0.17 mg/L (≈ 0.544 µM); in test [5] it was 12.5 mg/L (≈ 40 µM); in test [6], 12.5 mg/L (≈ 40 µM); in test [7], 50 mg/L (≈ 160 µM); in test [8] it was 25 mg/L (≈ 80 µM). The zone of inhibition at 240 µg/mL in test [3] (Serratia marcescens, S18, 18 h, plate without penicillin G or cephaloridine, read-out: Inhibition zone, Control) stood at 20 mm; in test [4] (Citrobacter freundii, E9, 18 h, plate without penicillin G or cephaloridine, read-out: Inhibition zone, Control) it was 22 mm. The “Inhibition zone, with cephaloridine” value was 26.0 mm in test [3] (setting [9]) and 25.0 mm in test [4] (setting [9]). Moreover, the results for the “Inhibition zone, with penicillin G” value in test [3] (setting [10]) and in test [4] (setting [10]) were 22.0 mm and 23.0 mm, respectively.
